This passage reports melting point results from a melting point compilation (Tetko et al.; mined from patent text by program, amines drawn as free bases though some values may be those of a salt).

In turn, `CCCCNC(=O)NS(=O)(=O)CCc1c(C)nn(C)c1-n1ccc2cc(C(F)(F)F)cnc21` had a melting point of 163 to 164 °C.
For the compound `O=C1OC(c2ccccc2)=NC1=Cc1c(O)ccc2ccccc12`, the melting point lay within 228 to 229 °C.
In turn, `O=C1N(Cc2ccncc2)Cc2cccnc2N1c1cccc(Cl)c1` had a melting point of 132 to 134 °C.
Take `CCC(=O)c1c(C)[nH]c(-c2ccccc2)c1N`: the melting point is 166 to 168 °C.
Turning to `Cc1ccc2c(c1)c1c(n2C(=O)c2ccc(F)cc2)CCC(C(=O)O)C1` (centres undefined), the melting point was 230 to 233 °C.
For `CNCCOc1cccc2c1c1cc(C)ccc1n2Cc1ccccc1`, the melting point is 96 to 96.8 °C.
Next, `CNC(=O)CC1CCN(Cc2cnc3c(C)c(NC(=O)c4ccc(-c5ccc(F)cc5)cc4)ccc3c2)CC1`: 229 to 231 °C; `N#CC(C(=O)c1ccc(Cl)cc1)=C1CCC(C(=O)O)N1` (centres undefined): 134 to 136 °C.
`CCOc1c(C)cccc1-c1nc2ccc(C(=O)O)cc2c(=O)[nH]1` returned a melting point of 240 to 241 °C.
Consider `Cc1nc(CCCCn2cnc3c2c(=O)n(C)c(=O)n3C)no1`, for which the melting point fell in the range of 131 to 132 °C.
Compound `CCOP(=O)(Cc1ccc(C(N)=O)cc1)OCC` displayed a melting point of 177 to 178 °C.
For the compound `CCCc1nc2c(N)nc3c(c2n1CC1(O)CCCC1)NCCC3`, the melting point lay within 207 to 208 °C.
`COc1cc(NCCCC(C)N2C(=O)c3ccccc3C2=O)c2nc(C)cc(C)c2c1OC` (centres undefined): the melting point fell in the range of 141 to 144 °C.
With `O=C(N=C1CCCN1Cc1ccccc1)Nc1ccc(F)c(Cl)c1`, the melting point was 131 to 132 °C.
As for `O=C1N=C(Cc2c[nH]c3ccccc23)C(CCc2cc(C(F)(F)F)cc(C(F)(F)F)c2)O1` (centres undefined), the melting point fell in the range of 178 to 180 °C.
In turn, `CCNc1nc(-c2cccc([N+](=O)[O-])c2)c2cc(OC)c(OC)cc2n1` returned a melting point of 164 to 166 °C.
Compound `CCOC(=O)c1c(OCC)c2ccc(C)nc2n(CC)c1=O` registered a melting point of 77 to 79 °C.
In turn, `COc1ccc2c(c1)CCC1=C2CCC2(C(C)C)C(=O)CCC12` (centres undefined) had a melting point of 85 to 100 °C.
`O=C(O)c1c(F)cccc1NC1CCN(Cc2ccccc2)CC1` registered a melting point of 233 to 236 °C.
As for `Cc1ccccc1-n1c(C)nc2cscc2c1=O`, the figure is 122 to 123 °C; as for `COc1ccc2cc(-c3cnc(-c4ccccc4)o3)ccc2c1`, 149 to 151 °C.
As for `CC(=O)Nc1c(C)c(C)c2c(c1[N+](=O)[O-])CC(C)(C)O2`, the melting point was 203 °C.
For `O=C1C=C(c2ccccc2)S(=O)(=O)C(c2cccs2)=C1`, the melting point lay within 162 to 164 °C.
As for `N#CC=Cc1ccc(Cl)cc1C(=O)c1ccccc1Cl`, the figure is 137 to 139 °C; as for `O=c1[nH]c(-c2cccc3ccccc23)nc2ccc(N3CCOCC3)cc12`, 291 to 293 °C; as for `COc1ccc2c(c1)C(=O)c1cc(-c3nnn[nH]3)ccc1C2=O`, 265 to 266 °C.
As for `COC(=O)CCCc1cc2nc(Cl)ccc2n1S(=O)(=O)c1ccc(C(C)(C)C)cc1`, the melting point amounted to 107 °C.
On to `CCCCCCCCN(C(=O)Nc1ccc(C(=O)O)cc1)c1ccc2c(c1)C(C)(C)CCC2(C)C`, for which the melting point fell in the range of 166 to 167 °C.
`CCCCC(=O)Nc1ccc(Cl)c(-n2nc(CC)n(Cc3ccc(-c4ccccc4S(=O)(=O)NC(=O)OC(C)(C)C)cc3F)c2=O)c1` yielded a melting point of 143 to 145 °C.
`CNC(=O)COC(=O)N1CCN(CCc2ccc3ccccc3c2)CC1` gave a melting point of 133 to 135 °C.
For `Cc1sc2c(Br)c3ccccc3c(-c3cc(Br)c(O)c(C(C)C)c3)c2c1C`, the melting point fell in the range of 157 to 162 °C.
The compound `CCOC(=O)CSc1nc(Cl)cc(Nc2cccc(C)c2C)n1` registered a melting point of 88 to 93 °C.
For the compound `O=C(NC(c1ccccc1)c1cc2ccncc2[nH]1)c1ccccc1` (centres undefined), the melting point lay in the range of 206 to 208 °C.
As for `O=C(OCC(Cl)(Cl)Cl)N1C2CCC1CC(Sc1ccccc1)C2` (centres undefined), the melting point lay within 83 to 84.5 °C.
Regarding `CC(=O)C=Cc1ccc(CCNS(=O)(=O)c2ccc(Cl)cc2)cc1`, the melting point lay in the range of 111 to 113 °C.
`CCCc1ccc(-c2cc(F)c(-c3ccc(CCC)s3)c(F)c2)cc1` showed a melting point of 64 °C.
Consider `CC(=O)N(C)c1c(I)c(N)c(I)c(C(=O)N(C)C)c1I`, for which the melting point fell in the range of 235 to 240 °C.
Next, `NC(=O)COc1ccc(CN2C(=O)C3(COc4cc5c(cc43)OCCO5)c3ccccc32)cc1` (centres undefined): 225 to 227 °C; `O=C(C[C@@H](CCCC1CCCCC1)c1nc(CN2CCOCC2)co1)NO`: 117 to 119 °C; `COc1ccccc1N1CCN(NC(=O)c2ccc(Cl)c(S(N)(=O)=O)c2)CC1`: 232 to 235 °C.
`c1ccc(N2CCN(CCc3cc4ccccc4[nH]3)CC2)cc1` displayed a melting point of 184 to 186 °C.
The compound `O=C1C2CCCC2=Nc2ccccc2N1Cc1ccc(Cl)cc1Cl` (centres undefined) displayed a melting point of 144 to 145 °C.
Next, `COc1nc(-c2ccccc2)c2c(n1)N(c1ccccc1)C(=O)NC2`: 220 to 222 °C; `c1csc(-c2nc3cc(COc4ccc(CCCn5ccnc5)cc4)ccc3o2)c1`: 130 to 131 °C.
For the compound `O=C1CCCCC1C(=S)Nc1ccc(Br)cc1F` (centres undefined), the melting point fell in the range of 94 to 95 °C.
`CCN1CCN(c2ccc(CC3=C(C)C(=O)c4ccccc4C3=O)cc2)CC1` had a melting point of 81 to 82 °C.
Compound `O=S(=O)(Nc1cccc2c(O)cccc12)N1CCOCC1` came in with a melting point of 220 to 223 °C.
For the compound `CC(C)c1ccc2c(O)c(C(=O)Nc3ccc(OCC(C)(C)C)c(C#N)c3)sc2n1`, the melting point lay in the range of 211 to 212 °C.
With `COc1ccc(C2(O)CCNCC2)cc1`, the melting point fell in the range of 120 to 122 °C.
Consider `COc1cc(OC)nc(C2(O)OC(=O)c3c(-c4ccco4)ccnc32)n1` (centres undefined), for which the melting point was in the range of 198 to 204 °C.
Next, `Cc1cc(O)c2c(ccc3nc(-c4ccco4)[nH]c32)n1`: 280 to 282 °C; `NCCNC(=O)CCCOc1ccc(C2=NNC(=O)CC2)cc1`: 174 to 175 °C.
`Oc1cccc2c1CCCC2n1cc[nH]c1=S` (centres undefined) showed a melting point of 188 to 190 °C.
Next, `COc1ccc(C2=NOC3(C2)C(=O)CN(C)C3=O)cc1OC1CCCC1` (centres undefined): 169 to 170 °C; `CCc1c(C)sc2[nH]c(=O)c(=O)[nH]c12`: greater than 300 °C.
For the compound `NC(=O)N1C(=O)C(C(=O)c2cccs2)c2cnccc21` (centres undefined), the melting point was 250 °C.
Next, `FC(F)=C(F)CC(=S)Nc1ccccc1`: 65 to 67 °C; `COc1cc(N)c(Cl)cc1C(=O)NCC1CCN(CCCCCC(=O)c2ccc(Cl)cc2)CC1`: 156 to 158 °C.
Compound `Cn1cc(C(N)=O)c(=O)c2cc(F)ccc21` showed a melting point of 295 to 299 °C.
Next, `CCCc1c(OCC2Cc3cc(CC(=O)OC)cc(F)c3O2)ccc(C(C)=O)c1O` (centres undefined): 80 to 82 °C.
`COc1cccc2oc(-c3ccc(Cl)cc3)cc(=O)c12`: the melting point is 171 to 172 °C.
`c1ccc(Cc2cnc(N3CCN(c4nc(-c5ccccc5)nc5ccccc45)CC3)nc2)cc1` displayed a melting point of 135 to 137 °C.
Next, `COc1ccc(C2(C)Cc3cc(OCC(=O)O)c(Cl)c(Cl)c3C2=O)cc1` (centres undefined): 173 to 175 °C; `COc1ccc(-c2cc(Cl)cc3c2NC(CN)CO3)c(C)c1` (centres undefined): 98 °C.
As for `Cc1nc(-c2ccncn2)cc(=O)[nH]1`, the figure is 320 to 322 °C.
As to `O=C(O)COc1cccc2c1CCc1sc(SC(Cc3ccccc3)c3ccccc3)nc1-2` (centres undefined), the melting point fell in the range of 201 to 204 °C.
Compound `NCc1ccc([N+](=O)[O-])cc1O` yielded a melting point of 210 to 215 °C.
Regarding `Cn1cc(SC(F)(F)F)c(=O)c(-c2cccc(C(F)(F)F)c2)c1`, the melting point was 122 to 124 °C.
`CC12CCC(O)CC1=CCC1C2C(O)CC2(C)C1CCC21OCCO1` (centres undefined) had a melting point of 123 to 125 °C.
`CC1(C)Oc2ccccc2C=C1/C=C/C=C/C=C/C(=O)O` showed a melting point of 180 to 182 °C.
Next, `CCCCS(=O)(=O)N(C)CCN1CC(c2ccc3c(c2)OCO3)C(C(=O)O)C1c1ccc(OC)cc1` (centres undefined): 64 to 66 °C; `COc1cc(C2=CCCCC2)c(Cl)cc1C(=O)N1Cc2ccc(C(=O)N(C)CC(O)CO)n2Cc2ccccc21` (centres undefined): 155 to 157 °C; `Cc1c(-c2ccncc2)sc2c1C(=O)CCC2`: 129 to 130 °C.
`CC(O)C(=O)NC1CCC(CC2CCC(NC(=O)C(C)O)CC2)CC1` (centres undefined): the melting point lay in the range of 195 to 199 °C.
The compound `O=P(Oc1ccccc1)(Oc1ccccc1)C1(N2CCOCC2)CCCCC1` yielded a melting point of 103 to 106 °C.
On to `O=C(Cl)c1sc2cc(Oc3ccccc3)ccc2c1Cl`, for which the melting point is 121 to 123 °C.
The compound `O=C(C1CCC(Nc2nccc(-n3nnc4c(-c5ccsc5)cccc43)n2)CC1)N1CCC(O)CC1` (centres undefined) came in with a melting point of 233 to 234 °C.
As to `Cc1ccccc1NC(=O)Nc1ccc(-c2c(CCO)sc3ncnc(N)c23)cc1`, the melting point was in the range of 159 to 162 °C.
`Cc1cc(=O)c(-c2ccc(Oc3cccc(OC(F)(F)F)c3)cc2)c(C)[nH]1` had a melting point of 244 to 246 °C.
Next, `CCCCCCOC1CC(C)(C)N(c2nc(N(CCCC)C3CC(C)(C)NC(C)(C)C3)nc(N(CCCC)C3CC(C)(C)NC(C)(C)C3)n2)C(C)(C)C1`: 135 to 137 °C; `Cc1cccc(NC(=O)NCC(=O)N(CC(=O)Nc2cccc3cccnc23)c2ccccc2)c1`: 170 °C.
The compound `CC1(C)CNC(=Nc2ccccc2)S1` gave a melting point of 153 to 155 °C.
In the case of `O=C(O)c1cn(C2COC2)c2c(F)c(F)cc(F)c2c1=O`, the melting point is greater than 300 °C.
In the case of `CC(=O)N1CCC(C(=O)c2ccc(F)cc2F)CC1`, the melting point turned out to be 97 °C.
Next, `C=C(C)C(=O)Oc1ccc(S(=O)(=O)N(C(=O)OC(C)(C)C)c2ccccc2)cc1`: 112 to 114 °C.
Consider `COc1nc(C)cnc1NS(=O)(=O)c1cccnc1-c1ccc(OCCO)cc1`, for which the melting point is 180 to 182 °C.
As for `Cc1ccc(Oc2ccc(Br)cc2O)c(O)c1`, the figure is 95 to 97 °C.
Regarding `O=c1[nH]c(C(F)(F)F)nc2ccc(S(=O)(=O)O)cc12`, the melting point was greater than 330 °C.
As to `OCC1CCc2[nH]c3ccc(F)cc3c2C1` (centres undefined), the melting point fell in the range of 107 to 109 °C.

Usually melting point stands for the temperature of the solid-liquid transition.
